How the values were obtained:
ArpA = molecular target: T1, ArpA (Streptomyces griseus, UniProt Q9ZN78); settings: A factor/ArpA; read-out: dissociation constant (Kd value); cited from earlier work
T1 sequence (Q9ZN78 1-276): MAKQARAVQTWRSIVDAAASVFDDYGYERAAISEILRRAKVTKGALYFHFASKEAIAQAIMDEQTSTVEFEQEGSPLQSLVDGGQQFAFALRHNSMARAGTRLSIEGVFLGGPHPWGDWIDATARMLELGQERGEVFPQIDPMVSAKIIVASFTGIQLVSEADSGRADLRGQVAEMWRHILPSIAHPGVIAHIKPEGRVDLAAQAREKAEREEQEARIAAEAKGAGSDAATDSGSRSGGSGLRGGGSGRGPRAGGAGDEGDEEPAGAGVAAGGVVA

[1] = test system: GUS reporter gene placed under the control of the operator BARE-3 (repressor BarA); test: GUS reporter induction at low VB concentrations in transiently transformed cultured tobacco cells (Example 7); type: cell-based
Source text: Cultured tobacco cells were provided with the characters of the repressor BarA (receptor protein for VB) and operator BARE-3 (one of the target sequences for BarA) constituting a gene expression inducing system with the actinomycete Streptomyces virginiae autogenous regulatory factor VB as the inducer by gene transfer and whether the expression of the GUS reporter gene placed under the control of the operator BARE-3 was induced was examined by administering the inducer VB in low concentrations to thus-obtained transiently transformed cultured tobacco cells.
Like in Example 6, the GUS reporter gene placed under the control of BARE-3 (Example 2, plasmid pCaMV35SD-gus) was further transferred into a cultured tobacco cell transformant clone (Example 3, No. 21 shown in FIG. 1) seemingly indicating relatively high level accumulation of the BarA protein among the clones obtained by transferring the barA gene (Example 1, binary vector pBICaMV35S-barA) into cultured tobacco BY2 cells, for transient transformation of that clone. […]

plants = test: Toxicity to plants; settings: concentration of 10 μM
Source text: The actinomycete autogenous regulatory factors have no toxicity to plants.

Compound | Kd (ArpA) | concentration at which gene expression under the control of BARE-3 is induced to a satisfactory extent [1] | toxicity to plants (plants)
CC(C)CCCCC(=O)C1C(=O)OC[C@H]1CO (stereo partly drawn) [A factor] | 700 pM |  | 
virginiae butanolide [VB] |  | 100 nM | no toxicity

Reference: patent US7049486B2, “Method of inducing gene expression in plant and the plant treated thereby” (priority 2000, dated 2006)
